Tests used:
Type in all cases: physicochemical
[1] = oil/water partition coefficient (K-value), static batch experiments, model oil
[2] = oil/water partition coefficient (K-value), static batch experiments, field oil phases North field 1 and North field 2; conditions: ionic strength in aqueous phase 0.776, pH 6.2, 50° C.
[3] = K-values of tested compounds A to G
Text: Some tested compounds having other combinations of substitution and hydroxyalkyl group position include compounds A to G shown in FIG. 3.
These compounds have K-values measured as follows:
The K-values can vary with pH, as shown below for compounds B and F: […]

[4] = pH (aqueous phase) 6.2, ionic strength in aqueous phase 0.776, model oil (isooctane 60%/toluene 30%/1-octanol 10%), 50° C.
[5] = pH (aqueous phase) 7.0, ionic strength in aqueous phase 0.776, model oil (isooctane 60%/toluene 30%/1-octanol 10%), 50° C.
[6] = pH (aqueous phase) 8.0, ionic strength in aqueous phase 0.776, model oil (isooctane 60%/toluene 30%/1-octanol 10%), 50° C.

| oil/water partition coefficient, K-value ([1]; pH 6.2) | oil/water partition coefficient, K-value ([1]; pH 7) | oil/water partition coefficient, K-value ([1]; pH 8) | Molecule | oil/water partition coefficient, K-value [1, 4] | oil/water partition coefficient, K-value [1, 5] | oil/water partition coefficient, K-value [1, 6] | oil/water partition coefficient, K-value ([2]; oil phase North field 1) | oil/water partition coefficient, K-value ([2]; oil phase North field 2) | K-value ([3]; pH (aqueous phase) 6.2) | K-value ([3]; pH (aqueous phase) 7.0) | K-value ([3]; pH (aqueous phase) 8.0) |
| --- | --- | --- | --- | --- | --- | --- | --- | --- | --- | --- | --- |
| – | – | – | CCCOC(=O)c1ccc(CO)cc1F [Proply ester of 2-fluoro-4-(hydroxymethyl) benzoic acid] | 41.7 | 44.2 | 48.7 | 5.9 | 7.5 | – | – | – |
| – | – | – | COC(=O)c1c(F)ccc(CO)c1F [B, Methyl ester of 2-6-difluoro-3-hydroxymethyl benzoic acid] | – | – | – | – | – | 3.0 | 2.8 | 2.4 |
| – | – | – | CCOC(=O)c1cc(F)cc(CO)c1 [F, Ethyl ester of 3-fluoro-5-hydroxymethyl benzoic acid] | – | – | – | – | – | 6.7 | 6.3 | 6.1 |
| – | – | – | 2,3-difluoro hydroxybenzoic acid [reference compound] | 0.0 | 0.0 | 0.0 | – | – | – | – | – |
| 0.0 | 0.0 | 0.0 | O=C(O)c1ccc(CO)cc1F [2-fluoro-4-(hydroxymethyl) benzoic acid, 2-Fluoro-4-(hydroxymethyl)benzoic acid] | – | – | – | 0.0 | 0.0 | – | – | – |
| – | – | – | CCOC(=O)c1ccc(CO)cc1F [Ethyl ester of 2-fluoro-4-(hydroxymethyl) benzoic acid] | 10.9 | 11.2 | 11.8 | 1.6 | 2.5 | – | – | – |
| – | – | – | COC(=O)c1ccc(CO)cc1F [Methyl ester of 2-fluoro-4-(hydroxymethyl) benzoic acid] | 3.2 | 3.4 | 3.3 | 0.6 | 0.8 | – | – | – |
| – | – | – | CCCCOC(=O)c1ccc(CO)cc1F [Butyl ester of 2-fluoro-4-(hydroxymethyl) benzoic acid] | 127.5 | 126.1 | 132.2 | 18.7 | 23.6 | – | – | – |

— US10351759B2, “Methods of assessing oil field saturation through use of reactive partitioning tracers” (RESTRACK AS, priority 2014, dated 2019)
